Measured values taken from patent publication US20220142941A1, “COMBINATION THERAPEUTIC REGIMENS WITH 1,6-DIBROMO-1,6-DIDEOXY-DULCITOL” (Eleison Pharmaceuticals LLC, priority 2019, published 2022).
Read-outs that look alike come from different tables or passages of the source.

How the values were obtained:
[1] = reported in the literature; cited from earlier work
[2] = test system: GS279peri; assay: DBD dose-response IC50, patient derived GSC culture; format: cell-based; details: Homo sapiens
Procedure: (§1) To assess the effects of crystalline DBD polymorph on the growth of patient derived GSC's (Glioma serum-free Stem-cell like cultures), dose-response assays were performed on twenty cultures. […] A dose-dependent decrease in viability was found, and the IC50 values of could be calculated using linear regression analysis. Specifically, looking at Table 1, a high variation of different IC50 values is seen in this panel of patient derived GSC's. In addition, no correlation is seen between the MGMT promotor methylation status and the amount of the IC50 value.

[3] = test system: GS257; assay: as above; format: cell-based; details: Homo sapiens
Procedure: as §1

[4] = test system: GS203; assay: as above; format: cell-based; details: Homo sapiens
Procedure: as §1

[5] = test system: GS184; assay: as above; format: cell-based; details: Homo sapiens
Procedure: as §1

[6] = test system: GS324core; assay: as above; format: cell-based; details: Homo sapiens
Procedure: as §1

[7] = test system: GS279core; assay: as above; format: cell-based; details: Homo sapiens, 120 h, read-out: IC50 5 d
Procedure: as §1

[8] = test system: GS104peri; assay: as above; format: cell-based; details: Homo sapiens
Procedure: as §1

[9] = test system: GS359; assay: as above; format: cell-based; details: Homo sapiens
Procedure: as §1

[10] = test system: GS249; assay: as above; format: cell-based; details: Homo sapiens
Procedure: as §1

[11] = test system: GS289; assay: as above; format: cell-based; details: Homo sapiens
Procedure: as §1

[12] = test system: GS365; assay: as above; format: cell-based; details: Homo sapiens
Procedure: as §1

[13] = test system: GS245; assay: as above; format: cell-based; details: Homo sapiens
Procedure: as §1

[14] = test system: GS281; assay: as above; format: cell-based; details: Homo sapiens
Procedure: as §1

[15] = test system: GS186peri; assay: as above; format: cell-based; details: Homo sapiens
Procedure: as §1

[16] = test system: GS304; assay: as above; format: cell-based; details: Homo sapiens
Procedure: as §1

[17] = test system: GS102peri; assay: as above; format: cell-based; details: Homo sapiens
Procedure: as §1

[18] = test system: GS186core; assay: as above; format: cell-based; details: Homo sapiens
Procedure: as §1

[19] = test system: GS323peri; assay: as above; format: cell-based; details: Homo sapiens, 120 h, passage 17, day 5, read-out: IC50 5 d
Procedure: as §1

[20] = test system: GS261; assay: as above; format: cell-based; details: Homo sapiens
Procedure: as §1

[21] = test system: GS224; assay: as above; format: cell-based; details: Homo sapiens
Procedure: as §1

[22] = test system: U373 glioma cell line; assay: Cell Titer-Glo viability, DBD concentration range; format: cell-based, human; details: 5 and 8 days
Procedure: (§2) These lines were seeded in triplicate in a 96-wells plate, in a dilution of 500 cells/well. […] FIGS. 1 and 2 show the histogram results of the two used glioma cell lines, T98 and U373. Specifically, the histograms are normalized in percentages, where the non-treated cells have a 100% survival. […] However, a concentration range between 1 and 100 μM was selected and was next tested on twenty patient-derived serum-free cell cultures.

[23] = test system: T98 glioma cell line; assay: Cell Titer-Glo viability, DBD concentration range; format: cell-based, human; details: 5 and 8 days
Procedure: as §2

[24] = Kellner et al., Nature (1967); cited from earlier work
[25] = test system: panel of 20 patient derived cell cultures; assay: DBD combination treatment, overall result over the panel; format: cell-based, human
Procedure: Crystalline DBD polymorph treatment was combined with chemotherapy, radiotherapy and targeted inhibitors to determine whether the crystalline DBD polymorph form could: enhance efficacy of the conventional therapies; enhance efficacy when combined with newer ‘targeted’ therapies; or would make (a subset of) cultures more sensitive to this treatment.
Therefore, cultures were treated with: • a.

[26] = 120 h, passage 14, day 5, read-out: IC50 5 d
[27] = passage 14, day 8, read-out: IC50 8 d

- IC50 ([2]; 120 h, passage 13, day 5, read-out: IC50 5 d): 31.5 µM
- IC50 ([2]; passage 13, day 8, read-out: IC50 8 d): 8.33 µM
- IC50 ([3]; 120 h, GS257, passage 13, day 5, read-out: IC50 5 d): 11.9 µM
- IC50 ([3]; GS257, passage 13, day 8, read-out: IC50 8 d): 10.2 µM
- IC50 ([4]; 120 h, GS203, passage 20, day 5, read-out: IC50 5 d): 28.7 µM
- IC50 ([4]; GS203, passage 20, day 8, read-out: IC50 8 d): 10.5 µM
- IC50 ([5]; 120 h, GS184, passage 15, day 5, read-out: IC50 5 d): 18.6 µM
- IC50 ([5]; GS184, passage 15, day 8, read-out: IC50 8 d): 1.96 µM
- IC50 ([6]; 120 h, passage 16, day 5, read-out: IC50 5 d): 8.96 µM
- IC50 ([6]; passage 16, day 8, read-out: IC50 8 d): 2.98 µM
- IC50 ([7]; GS279core (1), passage 13, day 5): 3.6 µM
- IC50 ([7]; GS279core (2), passage 16, day 5): 7.64 µM
- IC50 ([8]; 120 h, passage 22, day 5, read-out: IC50 5 d): 3.48 µM
- IC50 ([8]; passage 22, day 8, read-out: IC50 8 d): 0.57 µM
- IC50 ([9]; 120 h, GS359, passage 14, day 5, read-out: IC50 5 d): 11.8 µM
- IC50 ([9]; GS359, passage 14, day 8, read-out: IC50 8 d): 7.27 µM
- IC50 ([10]; 120 h, GS249, passage 18, day 5, read-out: IC50 5 d): 0.63 µM
- IC50 ([10]; GS249, passage 18, day 8, read-out: IC50 8 d): 0.24 µM
- IC50 ([11]; 120 h, GS289, passage 13, day 5, read-out: IC50 5 d): 6.88 µM
- IC50 ([11]; GS289, passage 13, day 8, read-out: IC50 8 d): 3.22 µM
- IC50 ([12]; 120 h, GS365, passage 14, day 5, read-out: IC50 5 d): 14.6 µM
- IC50 ([12]; GS365, passage 14, day 8, read-out: IC50 8 d): 5.69 µM
- IC50 ([13]; 120 h, GS245, passage 13, day 5, read-out: IC50 5 d): 6.58 µM
- IC50 ([13]; GS245, passage 13, day 8, read-out: IC50 8 d): 3.35 µM
- IC50 ([14]; 120 h, GS281, passage 13, day 5, read-out: IC50 5 d): 10.6 µM
- IC50 ([14]; GS281, passage 13, day 8, read-out: IC50 8 d): 5.55 µM
- IC50 [15, 26]: 4.24 µM
- IC50 [15, 27]: 2.28 µM
- IC50 ([16]; 120 h, GS304, passage 14, day 5, read-out: IC50 5 d): 106 µM
- IC50 ([16]; GS304, passage 14, day 8, read-out: IC50 8 d): 12.2 µM
- IC50 ([17]; 120 h, passage 18, day 5, read-out: IC50 5 d): 41.8 µM
- IC50 ([17]; passage 18, day 8, read-out: IC50 8 d): 11.9 µM
- IC50 [18, 26]: 4.56 µM
- IC50 [18, 27]: 1.94 µM
- IC50 [19]: 4.75 µM
- IC50 ([20]; 120 h, GS261, passage 11, day 5, read-out: IC50 5 d): 3.44 µM
- IC50 ([20]; GS261, passage 11, day 8, read-out: IC50 8 d): 1.85 µM
- IC50 ([21]; 120 h, GS224, passage 17, day 5, read-out: IC50 5 d): 33.3 µM
- IC50 ([21]; GS224, passage 17, day 8, read-out: IC50 8 d): 10.9 µM
Structure (SMILES): O[C@H]([C@H](O)[C@@H](O)CBr)[C@H](O)CBr [DBD, 1,6-dibromo-1,6-dideoxy-dulcitol]
- solubility [1]: poorly soluble
- effect on cell viability (percentage of living cells vs non-treated) ([22]; 0.1 μM and 0.3 μM DBD): not effective
- effect on cell viability (percentage of living cells vs non-treated) ([22]; 300 μM DBD): not viable
- effect on cell viability (percentage of living cells vs non-treated) ([23]; 0.1 μM and 0.3 μM DBD): not effective
- effect on cell viability (percentage of living cells vs non-treated) ([23]; 300 μM DBD): not viable
- antitumor effect [24]: selective a vigorous antitumor effect
- enhancement of the cytotoxic effect ([25]; combined with radiation treatment): 30%
- enhancement of the cytotoxic effect ([25]; combined with temozolomide): 50%
